The term inhibition denotes the relative decrease from the control value, in per cent. A word on the EC50: it is the concentration at which the effect is half-maximal. A higher EC50 goes with lower potency in that assay.

These results are taken from patent US12384765B2, “Catecholamine prodrugs for use in the treatment of Parkinson's Disease” (H. Lundbeck A/S, priority 2019, dated 2025).

SMILES strings stand for the structures. Entries after “also recorded” stand apart in the source; their conditions may differ.

Series [1] can be described thus: Conversion of compounds in human plasma. In kind it is in vitro ADME. As to the method:
Frozen human plasma was thawed and then centrifuged at 3200×g for 5 min to remove debris. The pH value of the supernatant was then measured and adjusted to 7.4±0.1 by adding 1% phosphoric acid or 1 N sodium hydroxide. 2 μL of dosing solution (50 μM for test compounds and 100 μM for positive control (propantheline bromide)) was mixed with 98 μL of blank plasma to achieve 1 μM test compound and 2 μM positive control of final concentration. The mixture was incubated, and samples were withdrawn from the incubations at the pre-determined time points of 0, 0.5, 1, 2, 4 and 6 hr (in duplicate) at 37° C. in water bath. At each corresponding time point 10 μL inhibitor and 20 μL ascorbic acid and 2 μL formic acid (20%) are added, and then added 400 μL of “stop solution” (200 ng/mL tolbutamide plus 200 ng/mL labetalol in 50% ACN/MeOH) to precipitate protein. The substance was mixed thoroughly and thereafter Centrifugated at 4,000 rpm for 20 minutes. Then an aliquot of supernatant (50 μL) was transferred from each well to a sample plate and mixed with 100 μL ultrapure water. The plate was shaked at 800 rpm for about 10 minutes before submitting to LC-MS/MS analysis.
(§1) Mass spectrometer (LC-MS/MS) Shimadzu LC 20-AD Shimadzu UHPLC API 4000. Analytical column ACQUITY UPLC® BEH Phenyl 1.7 μm 2.1×50 mm. Mobile phase A: 0.1% Formic Acid in Water. Mobile phase B: 0.1% Formic Acid in Acetonitrile. […] Flow rate 0.7 mL/min.

For series [2], the system named is human hepatocytes. As to the kind of experiment: Conversion of compounds in human hepatocytes. The conditions noted are these: 1 μM compound, 37° C.; nd: not detected. In kind it is in vitro ADME. How it is done:
Incubations were conducted in 96-well plates at 1 μM compound concentration in duplicate. The hepatocyte cell concentration was 0.5×10^6 cells/mL used for final incubation at 37° C. in an incubator of 5% CO2 95% relative humidity. The medium control samples were included at 0 and 60 minutes in the absence of cells. The total organic concentration was 1% (DMSO 0.1%) in the final incubation. The controls, (7-ethoxycoumarin and 7-hydroxycoumarin) was incubated parallel at 3 μM. 2 μL of dosing solution (50 μM for test compounds and 100 μM for positive control) was mixed with 98 μL of 100 mM PBS to achieve 1 μM test compound and 2 μM positive control of final concentration. The mixture was incubated, and samples were withdrawn from the incubations at pre-determined time points of 0, 0.5, 1, 2, 4 and 6 hr (in duplicate) at 37° C. in water bath. To each sample, 10 μL inhibitor and 20 μL ascorbic acid and 2 μL formic acid (20%) were added followed by 400 μL of stop solution (200 ng/mL tolbutamide plus 200 ng/mL labetalol in 50% ACN/MeOH). The substance was mixed thoroughly and thereafter centrifuged at 4,000 rpm for 20 minutes. An aliquot of supernatant (50 μL) from each well were transferred to a sample plate and mixed with 100 μL ultrapure water. The plate was shaked at 800 rpm for about 10 minutes before submitting to LC-MS/MS analysis.
as §1

Series [3] in a line: PK experiments in rats, plasma compound (I) after oral dosing. Format: in vivo, Han Wistar rats. The conditions noted are these: for plasma concentrations of compound (I) after oral dosing (in words): oral dosing to Wistar rats. How it is done: Plasma was placed on water-ice following collection. Final storage at approximately −70° C.
Mobile phase B: Acetonitrile. […] Flow rate 0.5 mL/min.
The rats had unrestricted access to the diet.
Mobile phase B: Acetonitrile+0.2% formic acid. […] Flow rate 0.3 mL/min.
The rats received a standard laboratory diet Teklad 2014C. The rats had unrestricted access to the diet.

Series [4] concerns the target T1, human 5-HT2B receptor (Homo sapiens (Human), UniProt P41595). As to the kind of experiment: 5-HT2B binding assay. The conditions noted are these: [125I](±)DOI, read-out: 5-HT2B binding affinity (% inhibition of control, specific binding). How it is done: Evaluation of the affinity of said compounds for the human 5-HT2B receptor was determined in a radioligand binding assay at Eurofins/Cerep (France). Membrane homogenates prepared from CHO cells expressing the human 5HT2B receptor were incubated for 60 min at room temperature with 0.2 nM [125I](±)DOI (1-(4-iodo-2,5-dimethoxyphenyl)propan-2-amine) in the absence or presence of the test compound in a buffer containing 50 mM Tris-HCl (pH 7.4), 5 mM MgCl2, 10 μM pargyline and 0.1% ascorbic acid. Nonspecific binding is determined in the presence of 1 μM (±)DOI. Following incubation, the samples were filtered rapidly under vacuum through glass fiber filters (GF/B, Packard) presoaked with 0.3% polyethyleneimine (PEI) and rinsed several times with ice-cold 50 mM Tris-HCl using a 96-sample cell harvester (Unifilter, Packard). The filters were dried and counted for radioactivity in a scintillation counter (Topcount, Packard) using a scintillation cocktail (Microscint 0, Packard). The results are expressed as a percent inhibition of the control radioligand specific binding. The standard reference compound was (±)DOI, which was tested in each experiment at several concentrations to obtain a competition curve from which its IC50 is calculated.

The subject of series [5] is male CD rats. The series is described as follows: Rat locomotor activity (hyperactivity) assay, open field. Format: in vivo. The conditions noted are these: for end of locomotor effect post administration: recording until 415-minute time point. As to the method:
In total, 206 male CD rats (Charles River, Germany) weighing 200-250 grams (165-190 grams upon arrival) were used in the study. Animals were housed at a standard temperature (22±1° C.) and in a light-controlled environment (lights on from 7 am to 8 pm) with ad libitum access to food and water. The experiment described below was performed in accordance with the standard operating procedures of Charles River Discovery Research Services Finland Ltd. and in accordance with the national Animal Experiment Board of Finland (Elainkoelautakunta, ELLA) authority on animal testing.
The test device is a square Plexiglass-arena (measuring 40×40×40 cm), in which the movement paths of the rats are recorded by an activity monitor (Med. Associates Inc.). Before the test period is initiated, rats are habituated to their test cage for 60 minutes. Upon completion of habituation, animals were treated with either compound or vehicle and placed back into the open field apparatus. The main test parameter measured is ambulatory distance (recorded in 5 minute segments). Overall time of measurement after receiving initial treatment was 360 minutes. Total follow up period in the study was 420 minutes, including 60 minutes of habituation.
Blood samples were taken and processed and analyzed as described under PK experiments in rats in Example 3.

The conditions of series [6]: Liu et al., Bioorganic Med. Chem. (2008); cited from earlier work.
The conditions of series [7]: WO 2010/097092; cited from earlier work.
In series [8] the target is T1, human 5-HT2B receptor. As to the kind of experiment: 5-HT2B agonist activity assay (IP1 production, HTRF). In kind it is cell-based. As to the method: Evaluation of the agonist activity of compounds (I), (Ia), (Ib), (Ic), (Ia-iab), compound (2), compound (9), compound (15), compound (27), A2, A3, and A7 at the human 5-HT2B receptor was performed by Eurofins/Cerep (France) measuring the compound effects on inositol monophosphate (IP1) production using the HTRF detection method. Briefly, the human 5-HT2B receptor was expressed in transfected CHO cells. The cells were suspended in a buffer containing 10 mM Hepes/NaOH (pH 7.4), 4.2 mM KCl, 146 mM NaCl, 1 mM CaCl2, 0.5 mM MgCl2, 5.5 mM glucose and 50 mM LiCl, then distributed in microplates at a density of 4100 cells/well and incubated for 30 minutes at 37° C. in the presence of buffer (basal control), test compound or reference agonist. For stimulated control measurement, separate assay wells contained 1 μM 5-HT. Following incubation, the cells were lysed and the fluorescence acceptor (fluorophen D2-labeled IP1) and fluorescence donor (anti-IP1 antibody labeled with europium cryptate) were added. After 60 minutes at room temperature, the fluorescence transfer was measured at lambda(Ex) 337 nm and lambda(Em) 620 and 665 nm using a microplate reader (Rubystar, BMG). The IP1 concentration was determined by dividing the signal measured at 665 nm by that measured at 620 nm (ratio). The results were expressed as a percent of the control response to 1 μM 5-HT. The standard reference agonist was 5-HT, which was tested in each experiment at several concentrations to generate a concentration-response curve from which its EC50 value is calculated as described above for dopamine functional assays.
A general note: TR-FRET usually uses a lanthanide donor and a delayed reading to cut background.

The test system of series [9] is rat hepatocytes. The following applies: WO 2010/097092; cited from earlier work.
Series [10] concerns human hepatocytes. The conditions noted are these: WO 2010/097092; cited from earlier work.
The nature of series [11]: In vitro dopaminergic activity (data not shown).
For series [12] the following is noted: Liu et al.; cited from earlier work.
The conditions of series [13]: in man after oral dosing; cited from earlier work.
The conditions of series [14]: intravenous (IV), PD patients; cited from earlier work.
The mark [15] stands for this setting: (Id-ia) 10 to 300 μg/kg p.o., apomorphine 3 mg/kg s.c., pramipexole 0.3 mg/kg s.c.
[16] abbreviates: (Id-ia) 10 to 300 μg/kg p.o., apomorphine 3 mg/kg s.c.

T1 sequence (P41595 whole entry): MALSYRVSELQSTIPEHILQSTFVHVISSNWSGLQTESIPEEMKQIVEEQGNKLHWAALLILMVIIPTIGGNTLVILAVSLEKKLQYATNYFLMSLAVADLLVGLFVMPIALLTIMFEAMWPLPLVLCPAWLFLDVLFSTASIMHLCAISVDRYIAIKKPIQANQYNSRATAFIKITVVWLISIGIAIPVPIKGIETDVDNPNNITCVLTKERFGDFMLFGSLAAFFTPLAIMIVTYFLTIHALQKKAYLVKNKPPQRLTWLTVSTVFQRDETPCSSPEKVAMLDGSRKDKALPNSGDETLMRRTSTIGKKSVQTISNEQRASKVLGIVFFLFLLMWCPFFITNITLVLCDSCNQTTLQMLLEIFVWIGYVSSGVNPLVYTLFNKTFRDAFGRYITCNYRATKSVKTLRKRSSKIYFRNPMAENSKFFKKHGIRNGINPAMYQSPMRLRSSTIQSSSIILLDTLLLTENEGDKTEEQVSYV

In the case of `CCCN1CCC[C@@H]2Cc3c(ccc(O[C@@H]4O[C@H](C(=O)O)[C@@H](O)[C@H](O)[C@H]4O)c3O)C[C@H]21` [(Id-ib), (2S,3S,4S,5R,6S)-3,4,5-tri hydroxy-6-(((4aR,10aR)-6-hydroxy-1-propyl-1,2,3,4,4a,5,10,10a-octahydrobenzo[g]quinolin-7-yl)oxy)tetrahydro-2H-pyran-2-carboxylic acid], in series [1] (1 μM test compound, 37° C., 0-6 hr, nd: not detected), the “Observed metabolite, Incubation in human plasma” value is “Compound (I)”. The “Observed metabolite, Incubation in human hepatocytes” value in series [2] is on record as “Compound (I)”. For the same molecule, the “Observed metabolite, In vivo PK study after oral dosing (rats)” value in [3] is “Compound (I)”. In series [4], the inhibition at 10 µM is -39%.
With `CCCN[C@H]1CCc2nc(N)sc2C1` [Pramipexole, pramipexole, reference compound], the “effect on locomotor activity” value in series [5] (setting [15]) is reported as “increase in activity”.
Take `CCCN1CCC[C@@H]2Cc3c(ccc(O)c3O)C[C@H]21` [(I), (4aR,10aR)-1-Propyl-1,2,3,4,4a,5,10,10a-octahydro-benzo[g]quinoline-6,7-diol]: the “half-life in the plasma assay” value in [1] (human plasma) was “short half-life”. Also, the “oral bioavailability (in words)” value in series [6] is given as “low oral bioavailability”. In addition, in [7], the “in vivo pharmacology in animal models relevant for Parkinson's Disease” value (shortened to “in vivo pharmacology”) is “effective”.
As for `CN1CCc2cccc3c2[C@H]1Cc1ccc(O)c(O)c1-3` [apomorphine, reference compound], in series [5] (setting [16]), the “end of locomotor effect post administration” value worked out at 1.5 h.
For `CCCN1CCC[C@@H]2Cc3c(ccc4c3OCO4)C[C@H]21` [(Ib), (6aR,10aR)-7-propyl-6,6a,7,8,9,10,10a,11-octahydro-[1,3]dioxolo[4′,5′:5,6]benzo[1,2-g]quinoline], the “plasma concentrations of compound (I) after oral dosing (in words)” value in series [3] is “early and high peak plasma concentrations”. In [8], the “5-HT2B receptor agonism (in words)” value was “agonist”. Moreover, the “in vivo pharmacology” value in series [7] is recorded as “effective”. For the same molecule, in series [9], the “conversion to compound (I) in rat hepatocytes” value is given as “demonstrated”. Besides, in series [10], the “conversion to compound (I) in human hepatocytes” value is “demonstrated”.
As for `CCCN1CCC[C@@H]2Cc3c(ccc(O)c3O[C@@H]3O[C@H](C(=O)O)[C@@H](O)[C@H](O)[C@H]3O)C[C@H]21` [(Id-ia), (2S,3S,4S,5R,6S)-3,4,5-trihydroxy-6-(((4aR,10aR)-7-hydroxy-1-propyl-1,2,3,4,4a,5,10,10a-octahydrobenzo[g]quinolin-6-yl)oxy)tetrahydro-2H-pyran-2-carboxylic acid], in series [3], the “Observed metabolite, In vivo PK study after oral dosing (rats)” value is recorded as “Compound (I)”. In addition, in series [5] (setting [15]), the “effect on locomotor activity” value is reported as “dopaminergic effect; also recorded: increases locomotor activity” and the “start of locomotor effect post-administration” value is about 2 h. In [5] (setting [16]), the “end of locomotor effect post administration” value is recorded as “lasting until the end of recording”. Further, the total distance travelled entry in series [5] (relative to vehicle, FIG. 4) was “significantly increased activity”. Besides, the “in vitro dopaminergic activity” value in series [11] is on record as “no in vitro dopaminergic activity”.
As for `CCCN1CCC[C@@H]2CC3=C(CCCC3=O)C[C@H]21` [(Ia), reference compound], in [3], the “plasma concentrations of compound (I) after oral dosing (in words)” value was “early and high peak plasma concentrations”. The same molecule returned an EC50 in series [8] (IP1 production, transfected CHO cells) of over 6 µM. Further, the activity at 30 µM in [8] (read-out: 5-HT2B agonist activity, percent of control response) worked out at 58%. Besides, in [7], the “in vivo pharmacology” value was “effective”. The “conversion to compound (I) in rats” value in [12] is given as “converted to the active compound (I)”.
As for `CCCc1cc2c(s1)CN[C@@H]1CCc3cc(OC(C)=O)c(OC(C)=O)cc3[C@@H]21` [Adrogolide, adrogolide], in series [13], the oral bioavailability was about 4%. Also, the antiparkinson efficacy result in [14] is listed as “comparable to that of L-DOPA”.
